PubChem BioAssay AID256 (DTP/NCI, 2004)
Where “and” joins values, the source holds several entries; their conditions need not be identical. Equal entries are not always repeated. Toxic doses and inconclusive results are not listed.

System: CD2F1 mice, L1210 leukemia ip, survival T/C
Test: NCI In Vivo Anticancer Drug Screen. Data for tumor model L1210 Leukemia (intraperitoneal) in CD2F1 (CDF1) mice
Conditions: higher = longer survival
How it was run: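 Antitumor effect is scored in animals hosting a serially transplanted tumor. Values compare compound-dosed animals against vehicle-only controls as a simple quotient.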

[1] = endpoint: mean survival time, dose: 100.0 mg/kg/injection, schedule: Q01DX001 (ip), vehicle: saline
[2] = endpoint: mean survival time, dose: 200.0 mg/kg/injection, schedule: Q01DX001 (ip), vehicle: saline
[3] = endpoint: mean survival time, dose: 100.0 mg/kg/injection, schedule: Q01DX009 (ip), vehicle: saline
[4] = endpoint: mean survival time, dose: 200.0 mg/kg/injection, schedule: Q01DX009 (ip), vehicle: saline
[5] = endpoint: mean survival time, dose: 400.0 mg/kg/injection, schedule: Q01DX009 (ip), vehicle: saline
[6] = endpoint: mean survival time, dose: 6.25 mg/kg/injection, schedule: Q04DX003 (ip), vehicle: water
[7] = endpoint: mean survival time, dose: 12.5 mg/kg/injection, schedule: Q01DX009 (ip), vehicle: saline
[8] = endpoint: mean survival time, dose: 25.0 mg/kg/injection, schedule: Q01DX009 (ip), vehicle: saline
[9] = endpoint: mean survival time, dose: 100.0 mg/kg/injection, schedule: Q01DX009 (ip), vehicle: saline with Tween-80
[10] = endpoint: mean survival time, dose: 100.0 mg/kg/injection, schedule: Q04DX003 (ip), vehicle: saline with Tween-80
[11] = endpoint: mean survival time, dose: 200.0 mg/kg/injection, schedule: Q01DX009 (ip), vehicle: saline with Tween-80
[12] = endpoint: mean survival time, dose: 200.0 mg/kg/injection, schedule: Q04DX003 (ip), vehicle: saline with Tween-80
[13] = endpoint: mean survival time, dose: 400.0 mg/kg/injection, schedule: Q04DX003 (ip), vehicle: saline with Tween-80
[14] = endpoint: mean survival time, dose: 100.0 mg/kg/injection, schedule: Q04DX002 (ip), vehicle: saline
[15] = endpoint: mean survival time, dose: 12.5 mg/kg/injection, schedule: Q01DX009 (ip), vehicle: saline with Tween-80
[16] = endpoint: mean survival time, dose: 50.0 mg/kg/injection, schedule: Q01DX009 (ip), vehicle: saline with Tween-80

## Cc1ccc(C)c(Br)c1C
endpoint: mean survival time, dose: 100.0 mg/kg/injection, schedule: Q01DX005 (ip), vehicle: saline with Tween-80
  T/C: 97 % of control
endpoint: mean survival time, dose: 200.0 mg/kg/injection, schedule: Q01DX005 (ip), vehicle: saline with Tween-80
  T/C: 101 % of control
endpoint: mean survival time, dose: 400.0 mg/kg/injection, schedule: Q01DX005 (ip), vehicle: saline with Tween-80
  T/C: 97 % of control

## O=C1OC(C(=O)O)Cc2ccccc21 (centres undefined)
endpoint: mean survival time, dose: 50.0 mg/kg/injection, schedule: Q01DX001 (ip), vehicle: saline
  T/C: 102 % of control
[1]
  T/C: 100 % of control
[2]
  T/C: 110 % of control
endpoint: mean survival time, dose: 400.0 mg/kg/injection, schedule: Q01DX001 (ip), vehicle: saline
  T/C: 103 % of control

## CN(C)c1ccc(N=Nc2cccc(C(=O)[O-])c2)cc1.CN(C)c1ccc(N=Nc2cccc(C(=O)[O-])c2)cc1.NC1CCCCC1N.[Pt+4]
endpoint: median survival time, dose: 3.12 mg/kg/injection, schedule: Q04DX003 (ip), vehicle: saline with Tween-80
  T/C: 116 % of control and 98 % of control
endpoint: median survival time, dose: 6.25 mg/kg/injection, schedule: Q04DX003 (ip), vehicle: saline with Tween-80
  T/C: 115 % of control and 109 % of control
endpoint: median survival time, dose: 12.5 mg/kg/injection, schedule: Q04DX003 (ip), vehicle: saline with Tween-80
  T/C: 101 % of control
endpoint: median survival time, dose: 100.0 mg/kg/injection, schedule: Q04DX003 (ip), vehicle: saline with Tween-80
  T/C: 375 % of control
endpoint: median survival time, dose: 200.0 mg/kg/injection, schedule: Q04DX003 (ip), vehicle: saline with Tween-80
  T/C: 104 % of control

## O=c1[nH]cc(N=Cc2ccccc2Cl)c(=O)[nH]1.[Cl][Pt][Cl]
endpoint: mean survival time, dose: 3.13 mg/kg/injection, schedule: Q04DX003 (ip), vehicle: distilled water + Tween-80
  T/C: 94 % of control
endpoint: mean survival time, dose: 6.25 mg/kg/injection, schedule: Q04DX003 (ip), vehicle: distilled water + Tween-80
  T/C: 97 % of control
endpoint: mean survival time, dose: 12.5 mg/kg/injection, schedule: Q04DX003 (ip), vehicle: distilled water + Tween-80
  T/C: 88 % of control
endpoint: mean survival time, dose: 25.0 mg/kg/injection, schedule: Q04DX003 (ip), vehicle: distilled water + Tween-80
  T/C: 96 % of control
endpoint: mean survival time, dose: 50.0 mg/kg/injection, schedule: Q04DX003 (ip), vehicle: distilled water + Tween-80
  T/C: 96 % of control
endpoint: mean survival time, dose: 100.0 mg/kg/injection, schedule: Q04DX003 (ip), vehicle: distilled water + Tween-80
  T/C: 103 % of control
endpoint: mean survival time, dose: 200.0 mg/kg/injection, schedule: Q04DX003 (ip), vehicle: distilled water + Tween-80
  T/C: 94 % of control

## CN(C)P(=O)(N(C)C)N(C)C
[3]
  T/C: 105 % of control
[4]
  T/C: 104 % of control
[5]
  T/C: 107 % of control

## CC(=N\O)/C(C)=N/O.CC(=N\O)/C(C)=N/O.CCCC1CC[N-]CC1.CCCC1CC[N-]CC1.CCCC1CC[N-]CC1.CCCC1CC[N-]CC1.[Cl-].[Cl-].[Cl][Rh][Cl].[Rh+3]
endpoint: mean survival time, dose: 6.25 mg/kg/injection, schedule: Q01DX009 (ip), vehicle: water
  T/C: 97 % of control
[6]
  T/C: 86 % of control
endpoint: mean survival time, dose: 12.5 mg/kg/injection, schedule: Q04DX003 (ip), vehicle: water
  T/C: 94 % of control
endpoint: mean survival time, dose: 25.0 mg/kg/injection, schedule: Q01DX009 (ip), vehicle: water
  T/C: 88 % of control
endpoint: mean survival time, dose: 25.0 mg/kg/injection, schedule: Q04DX003 (ip), vehicle: water
  T/C: 86 % of control

## CC1OC(Sc2ncnc3nc[nH]c23)C(O)C(O)C1O (centres undefined)
endpoint: median survival time, dose: 12.5 mg/kg/injection, schedule: Q01DX005 (ip), vehicle: saline with Tween-80
  T/C: 105 % of control
endpoint: median survival time, dose: 25.0 mg/kg/injection, schedule: Q01DX005 (ip), vehicle: saline with Tween-80
  T/C: 107 % of control
endpoint: median survival time, dose: 50.0 mg/kg/injection, schedule: Q01DX005 (ip), vehicle: saline with Tween-80
  T/C: 103 % of control and 109 % of control
endpoint: median survival time, dose: 100.0 mg/kg/injection, schedule: Q01DX005 (ip), vehicle: saline with Tween-80
  T/C: 122 % of control
endpoint: median survival time, dose: 200.0 mg/kg/injection, schedule: Q01DX005 (ip), vehicle: saline with Tween-80
  T/C: 150 % of control and 151 % of control
endpoint: median survival time, dose: 400.0 mg/kg/injection, schedule: Q01DX005 (ip), vehicle: saline with Tween-80
  T/C: 170 % of control

## CC(=O)OCC1OC(n2cnc(N)nc2=O)C(OC(C)=O)C1OC(C)=O (centres undefined)
endpoint: mean survival time, dose: 1.56 mg/kg/injection, schedule: Q01DX009 (ip), vehicle: saline
  T/C: 121 % of control
endpoint: mean survival time, dose: 3.12 mg/kg/injection, schedule: Q01DX009 (ip), vehicle: saline
  T/C: 158 % of control
endpoint: mean survival time, dose: 6.25 mg/kg/injection, schedule: Q01DX009 (ip), vehicle: saline
  T/C: 161 % of control
[7]
  T/C: 169 % of control
[8]
  T/C: 110 % of control and 111 % of control

## CC[C@@]1(O)C(=O)OCc2c1cc1n(c2=O)Cc2cc3cc(OC)ccc3nc2-1
endpoint: mean survival time, dose: 0.78 mg/kg/injection, schedule: Q04DX003 (ip), vehicle: water
  T/C: 119 % of control
endpoint: mean survival time, dose: 3.13 mg/kg/injection, schedule: Q04DX003 (ip), vehicle: water
  T/C: 155 % of control and 181 % of control
[6]
  T/C: 113 % of control

## CCCCOC(=O)CCCCC(=O)OCCCC
[9]
  T/C: 96 % of control
[10]
  T/C: 97 % of control
[11]
  T/C: 105 % of control
[12]
  T/C: 98 % of control
endpoint: mean survival time, dose: 400.0 mg/kg/injection, schedule: Q01DX009 (ip), vehicle: saline with Tween-80
  T/C: 110 % of control
[13]
  T/C: 97 % of control

## C=Cc1ccc(C(N)=O)cc1
[10]
  T/C: 101 % of control
[12]
  T/C: 98 % of control
[13]
  T/C: 96 % of control

## [Co].[N-]=C=S.[N-]=C=S.[N-]=C=S.[N-]=C=S
endpoint: mean survival time, dose: 25.0 mg/kg/injection, schedule: Q04DX002 (ip), vehicle: saline
  T/C: 104 % of control
endpoint: mean survival time, dose: 50.0 mg/kg/injection, schedule: Q04DX002 (ip), vehicle: saline
  T/C: 104 % of control
[14]
  T/C: 117 % of control and 112 % of control

## COc1cc(Cl)ccc1NC(=O)Nc1cccc(C(=O)O)c1
[15]
  T/C: 97 % of control
endpoint: mean survival time, dose: 25.0 mg/kg/injection, schedule: Q01DX009 (ip), vehicle: saline with Tween-80
  T/C: 90 % of control
[16]
  T/C: 90 % of control
[9]
  T/C: 96 % of control
[11]
  T/C: 90 % of control

## CCOC(=O)CC(O)CC (centres undefined)
[14]
  T/C: 95 % of control
endpoint: mean survival time, dose: 200.0 mg/kg/injection, schedule: Q04DX002 (ip), vehicle: saline
  T/C: 95 % of control
endpoint: mean survival time, dose: 400.0 mg/kg/injection, schedule: Q04DX002 (ip), vehicle: saline
  T/C: 95 % of control

## CNC(=O)NC1C(O)C(OC)OC2COC(c3ccccc3)OC21 (centres undefined)
[10]
  T/C: 97 % of control
[12]
  T/C: 97 % of control
[13]
  T/C: 95 % of control

## O=c1ccc2nc3ccccc3sc-2c1
endpoint: mean survival time, dose: 25.0 mg/kg/injection, schedule: Q01DX009 (ip), vehicle: Klucel (hydroxypropylcellulose) (HPC)
  T/C: 106 % of control
endpoint: mean survival time, dose: 50.0 mg/kg/injection, schedule: Q01DX009 (ip), vehicle: Klucel (hydroxypropylcellulose) (HPC)
  T/C: 103 % of control
[16]
  T/C: 97 % of control
endpoint: mean survival time, dose: 100.0 mg/kg/injection, schedule: Q01DX009 (ip), vehicle: Klucel (hydroxypropylcellulose) (HPC)
  T/C: 108 % of control
endpoint: mean survival time, dose: 200.0 mg/kg/injection, schedule: Q01DX009 (ip), vehicle: Klucel (hydroxypropylcellulose) (HPC)
  T/C: 98 % of control

## O=C/C=C/Nc1ccccc1
[3]
  T/C: 94 % of control
[4]
  T/C: 102 % of control
[5]
  T/C: 96 % of control

## COc1nn(O)cc2cc(C(=O)O)nc1-2
endpoint: mean survival time, dose: 12.5 mg/kg/injection, schedule: Q04DX002 (ip), vehicle: saline with Tween-80
  T/C: 104 % of control
endpoint: mean survival time, dose: 25.0 mg/kg/injection, schedule: Q04DX002 (ip), vehicle: saline with Tween-80
  T/C: 104 % of control
endpoint: mean survival time, dose: 50.0 mg/kg/injection, schedule: Q04DX002 (ip), vehicle: saline with Tween-80
  T/C: 101 % of control

## NCC(Br)CO (centres undefined)
endpoint: mean survival time, dose: 31.3 mg/kg/injection, schedule: Q01DX001 (ip), vehicle: other
  T/C: 95 % of control
endpoint: mean survival time, dose: 62.5 mg/kg/injection, schedule: Q01DX001 (ip), vehicle: other
  T/C: 95 % of control
endpoint: mean survival time, dose: 125.0 mg/kg/injection, schedule: Q01DX001 (ip), vehicle: other
  T/C: 100 % of control
endpoint: mean survival time, dose: 250.0 mg/kg/injection, schedule: Q01DX001 (ip), vehicle: other
  T/C: 101 % of control
endpoint: mean survival time, dose: 500.0 mg/kg/injection, schedule: Q01DX001 (ip), vehicle: other
  T/C: 97 % of control

## CCCCCCCC(=O)[O][Hg][CH2]C1COC([CH2][Hg][O]C(=O)CCCCCCC)CO1 (centres undefined)
endpoint: mean survival time, dose: 6.25 mg/kg/injection, schedule: Q01DX009 (ip), vehicle: saline with Tween-80
  T/C: 106 % of control
[15]
  T/C: 96 % of control

## c1ccc(CN2CCOC2)cc1
[7]
  T/C: 95 % of control and 101 % of control
[8]
  T/C: 97 % of control and 101 % of control
endpoint: mean survival time, dose: 50.0 mg/kg/injection, schedule: Q01DX009 (ip), vehicle: saline
  T/C: 100 % of control and 106 % of control
[3]
  T/C: 104 % of control and 106 % of control
[4]
  T/C: 95 % of control and 106 % of control

## CCCC(=O)C1=C(O)C(CC2=C(O)C(C)(C)C(=O)C(C(=O)CCC)=C2O)=C(O)C(C)(C)C1=O
[1]
  T/C: 98 % of control
[2]
  T/C: 101 % of control
